Values quoted from earlier work, collected in patent US11491200B2, “Herbal compositions and methods for the prevention and treatment of nail infections” (Produits Naturels Mondias Inc., priority 2016, dated 2022).

Test system: onychomycosis
Conditions: mild-to-moderate onychomycosis; versus 3% for placebo

**Q.** Which efficacy does the source give for C=C1CCN([C@H](C)[C@](O)(Cn2cncn2)c2ccc(F)cc2F)CC1 [Jublia] here?
**A.** 17%
